Where a name gives a salt, the structure may show the parent alone.
Key:
Format in all cases: physicochemical
[1] = Storage stability, long term conditions 25° C. and 60% relative humidity
Description: (§1) Samples of HM06 1:2 HCl Form 1 were subjected to accelerated storage conditions and long-term storage.
Table 25 sets forth the sample analysis at times 0, 3 months, 6 months, 9 months, 12 months, 18 months, and 24 months.

[2] = Saturated solution in methanol; conditions: room temperature
Experimental: A saturated solution of HM06 1:2 HCl Form 1 in methanol approx. 50 mg/mL was prepared and allowed to stir at room temperature overnight (18 hours). After this time, it was filtered and left to evaporate at 25° C./700 mbar. The preparation of the sample plate sealed with Kapton film was performed under 40-45% RH. Some very minor signals of Form 1 were present.

[3] = Storage stability, accelerated conditions 40° C./75% relative humidity; conditions: for HPLC assay (anhydrous) / HPLC purity: 12-HM06 / HPLC purity: impurity 12-HM06.il (RRT 0.92-.94) / HPLC purity: impurity RRT 0.56 / HPLC purity: impurity RRT 1.11 / HPLC purity: impurity RRT 1.20-1.24 / HPLC purity: impurity RRT 1.41-1.42 / Water content (KF) / XRPD: 40° C./75% relative humidity
Experimental: as §1
Samples of HM06 1:2 HCl Form 1 from the same lot were stored at 40° C. and 75% relative humidity for 24 months with testing at regular intervals.

[4] = Uptake of water from air by dehydrated form, followed by VP-XRPD; conditions: after vacuum 0.07 mbar; ambient condition, RH about 80%
Experimental: VP-XRPD measurements were performed on the Panalytical X'pert equipped with the Anton Paar TTK450 chamber which allowed for measurement of the powder in-situ at controlled temperature and/or under vacuum.
The first measurement was collected at RT and atmospheric pressure. The sample was then left for 15 minutes under vacuum (0.07 mbar).
The uptake of water by Form 1-bis was observed via XRPD by following the difference in the pattern in the range 2θ=25.5°-27-5° (see FIG. 5C). Under vacuum the highest peak is the peak at 2θ=26.7° while after exposure of the sample in air 2 minutes the highest is at 2θ=26.4°. The peak at 2θ=26.4° moves to 2θ=26.2° in 20 minutes. HM06 1:2 HCl crystalline Form 1-bis uptakes the water from the atmosphere as soon as the powder is exposed to the air, and it reaches the diffraction pattern of the starting material in 20 minutes (see […] 5D). This experiment was done in ambient condition with RH % of the room about at 80%.

[5] = Solid form (polymorph) stability on storage, followed by XRPD; conditions: for Form stability (XRPD) after storage in a sealed vial: seven days in a sealed vial
Experimental: The stability of Form 4-bis was assessed after seven days of storage in a sealed vial.
HM06 1:2 HCl Form 4 exposed powder was stored overnight at room temperature under 43% RH.
The stability of the HM06 1:2 HCl Form 5-bis sample was assessed after 18 hours exposed to air and after one week in a sealed vial, both at room temperature.
Form 5-bis was measured after 18 hours exposed powder at room temperature. The % RH was approx. of 45%.
These changes could not be associated with conversion into one of the other isolated polymorphs observed during this study: thus, the sample was considered not stable.
HM06 1:2 HCl Form 5-bis was measured after seven days at room temperature in a sealed vial.
Form 6 was collected after evaporation of HM06 1:2 HCl Form 1 in a 1:1 acetonitrile/water solution at room temperature under low pressure.

COCc1ccc(NC(=O)c2c(C#CCN3CCOCC3)n(C3(C)CC3)c3ncnc(N)c23)cc1 [HM06 1:2 HCl Form 1, 4-amino-N-[4-(methoxymethyl)phenyl]-7-(1-methylcyclopropyl)-6-(3-morpholinoprop-1-yn-1-yl)-7H-pyrrolo[2,3-d]pyrimidine-5-carboxamide]
0.20%: HPLC purity: impurity RRT 1.20-1.24 ([1]; 0 months) | HPLC purity: impurity RRT 1.20-1.24 ([1]; 3 months) | HPLC purity: impurity RRT 1.20-1.24 ([1]; 6 months) | HPLC purity: impurity RRT 1.20-1.24 ([1]; 9 months) | HPLC purity: impurity RRT 1.20-1.24 ([1]; 12 months) | HPLC purity: impurity RRT 1.20-1.24 ([3]; 0 months) | HPLC purity: impurity RRT 1.20-1.24 ([3]; 1 month) | HPLC purity: impurity RRT 1.20-1.24 ([3]; 3 months)
6%: Water content (KF) ([1]; 0 months) | Water content (KF) ([1]; 12 months) | Water content (KF) ([1]; 24 months) | Water content (KF) ([3]; 0 months) | Water content (KF) ([3]; 1 month)
approx. 50 mg/mL: Concentration of saturated solution in methanol [2]
remained stable and crystalline: Storage stability, overall result ([3]; accelerated storage conditions and long-term storage)
99%: HPLC assay (anhydrous) ([1]; 0 months) | HPLC purity: 12-HM06 ([1]; 0 months) | HPLC purity: 12-HM06 ([1]; 3 months) | HPLC assay (anhydrous) ([1]; 6 months) | HPLC purity: 12-HM06 ([1]; 6 months) | HPLC assay (anhydrous) ([1]; 9 months) | HPLC purity: 12-HM06 ([1]; 9 months) | HPLC assay (anhydrous) ([1]; 12 months) | HPLC purity: 12-HM06 ([1]; 12 months) | HPLC purity: 12-HM06 ([1]; 18 months) | HPLC purity: 12-HM06 ([1]; 24 months) | HPLC assay (anhydrous) ([3]; 0 months) | HPLC purity: 12-HM06 ([3]; 0 months) | HPLC purity: 12-HM06 ([3]; 1 month) | HPLC purity: 12-HM06 ([3]; 3 months) | HPLC purity: 12-HM06 ([3]; 6 months)
0.05%: HPLC purity: impurity RRT 0.85 ([1]; 18 months) | HPLC purity: impurity RRT 1.11 ([1]; 18 months) | HPLC purity: impurity RRT 0.56 ([3]; 6 months) | HPLC purity: impurity RRT 1.11 ([3]; 6 months)
98%: HPLC assay (anhydrous) ([3]; 6 months)
Crystalline: XRPD ([1]; 0 months) | XRPD ([1]; 3 months) | XRPD ([1]; 6 months) | XRPD ([1]; 9 months) | XRPD ([1]; 12 months) | XRPD ([1]; 18 months) | XRPD ([1]; 24 months) | XRPD ([3]; 0 months) | XRPD ([3]; 1 month) | XRPD ([3]; 3 months) | XRPD ([3]; 6 months)
not detected: HPLC purity: impurity RRT 0.56 ([3]; 0 months) | HPLC purity: impurity RRT 1.11 ([3]; 0 months) | HPLC purity: impurity RRT 0.56 ([3]; 1 month) | HPLC purity: impurity RRT 1.11 ([3]; 1 month) | HPLC purity: impurity RRT 0.56 ([3]; 3 months) | HPLC purity: impurity RRT 1.11 ([3]; 3 months)
100%: HPLC assay (anhydrous) ([1]; 24 months) | HPLC assay (anhydrous) ([3]; 1 month)
97%: HPLC assay (anhydrous) ([1]; 18 months)
0.06%: HPLC purity: impurity RRT 1.41-1.42 ([1]; 0 months) | HPLC purity: impurity RRT 1.41-1.42 ([1]; 3 months) | HPLC purity: impurity RRT 1.41-1.42 ([1]; 6 months) | HPLC purity: impurity RRT 1.41-1.42 ([1]; 9 months) | HPLC purity: impurity RRT 1.41-1.42 ([1]; 12 months) | HPLC purity: impurity RRT 1.41-1.42 ([1]; 18 months) | HPLC purity: impurity RRT 0.85 ([1]; 24 months) | HPLC purity: impurity RRT 1.41-1.42 ([1]; 24 months) | HPLC purity: impurity RRT 1.41-1.42 ([3]; 0 months) | HPLC purity: impurity RRT 1.41-1.42 ([3]; 1 month) | HPLC purity: impurity RRT 1.41-1.42 ([3]; 3 months) | HPLC purity: impurity RRT 1.41-1.42 ([3]; 6 months)
102%: HPLC assay (anhydrous) ([1]; 3 months) | HPLC assay (anhydrous) ([3]; 3 months)
5%: Water content (KF) ([1]; 3 months) | Water content (KF) ([1]; 6 months) | Water content (KF) ([1]; 9 months) | Water content (KF) ([1]; 18 months) | Water content (KF) ([3]; 3 months) | Water content (KF) ([3]; 6 months)
0.51%: HPLC purity: impurity 12-HM06.il (RRT 0.92-0.94) ([1]; 0 months) | HPLC purity: impurity 12-HM06.il (RRT 0.92-0.94) ([1]; 3 months) | HPLC purity: impurity 12-HM06.il (RRT 0.92-0.94) ([1]; 6 months) | HPLC purity: impurity 12-HM06.il (RRT 0.92-0.94) ([1]; 9 months) | HPLC purity: impurity 12-HM06.il (RRT 0.92-0.94) ([1]; 12 months) | HPLC purity: impurity 12-HM06.il (RRT 0.92-0.94) ([1]; 18 months) | HPLC purity: impurity 12-HM06.il (RRT 0.92-0.94) ([1]; 24 months) | HPLC purity: impurity 12-HM06.il (RRT 0.92-.94) ([3]; 0 months) | HPLC purity: impurity 12-HM06.il (RRT 0.92-.94) ([3]; 1 month) | HPLC purity: impurity 12-HM06.il (RRT 0.92-.94) ([3]; 3 months) | HPLC purity: impurity 12-HM06.il (RRT 0.92-.94) ([3]; 6 months)
0.19%: HPLC purity: impurity RRT 1.20-1.24 ([1]; 18 months) | HPLC purity: impurity RRT 1.20-1.24 ([1]; 24 months) | HPLC purity: impurity RRT 1.20-1.24 ([3]; 6 months)

COCc1ccc(NC(=O)c2c(C#CCN3CCOCC3)n(C3(C)CC3)c3ncnc(N)c23)cc1 [HM06 1:2 HCl Form 1-bis, 4-amino-N-[4-(methoxymethyl)phenyl]-7-(1-methylcyclopropyl)-6-(3-morpholinoprop-1-yn-1-yl)-7H-pyrrolo[2,3-d]pyrimidine-5-carboxamide]
20 min: Time in air to reach the diffraction pattern of the starting material (Form 1) by uptake of water [4]

COCc1ccc(NC(=O)c2c(C#CCN3CCOCC3)n(C3(C)CC3)c3ncnc(N)c23)cc1 [HM06 1:2 HCl Form 4, 4-amino-N-[4-(methoxymethyl)phenyl]-7-(1-methylcyclopropyl)-6-(3-morpholinoprop-1-yn-1-yl)-7H-pyrrolo[2,3-d]pyrimidine-5-carboxamide]
No significant modifications: Form stability (XRPD) of exposed powder ([5]; stored overnight at room temperature under 43% RH)

COCc1ccc(NC(=O)c2c(C#CCN3CCOCC3)n(C3(C)CC3)c3ncnc(N)c23)cc1 [HM06 1:2 HCl Form 4-bis, 4-amino-N-[4-(methoxymethyl)phenyl]-7-(1-methylcyclopropyl)-6-(3-morpholinoprop-1-yn-1-yl)-7H-pyrrolo[2,3-d]pyrimidine-5-carboxamide]
complete conversion into Form 1: Form stability (XRPD) after storage in a sealed vial ([5]; listed as Form 4-bis)

COCc1ccc(NC(=O)c2c(C#CCN3CCOCC3)n(C3(C)CC3)c3ncnc(N)c23)cc1 [HM06 1:2 HCl Form 5-bis, 4-amino-N-[4-(methoxymethyl)phenyl]-7-(1-methylcyclopropyl)-6-(3-morpholinoprop-1-yn-1-yl)-7H-pyrrolo[2,3-d]pyrimidine-5-carboxamide]
started to convert into Form 1: Form stability (XRPD) after storage in a sealed vial [5]
not stable: Form stability (XRPD) of exposed powder ([5]; 18 hours exposed to air at room temperature, approx. 45% RH)

COCc1ccc(NC(=O)c2c(C#CCN3CCOCC3)n(C3(C)CC3)c3ncnc(N)c23)cc1 [HM06 1:2 HCl Form 6, 4-amino-N-[4-(methoxymethyl)phenyl]-7-(1-methylcyclopropyl)-6-(3-morpholinoprop-1-yn-1-yl)-7H-pyrrolo[2,3-d]pyrimidine-5-carboxamide]
conversion into Form 1: Form stability on storage ([5]; 6 days of storage, room temperature under low pressure)
